Results from paper PMC4075989 (Biochemistry, 2014).
Where a SMILES comes first, the peptide text is derived from it. [ ]: non-standard residue; d: D form. 2Nal = N[C@@H](Cc1ccc2ccccc2c1)C(=O)O

Assays:
[1] = test system: glucocorticoid receptor (C638G)-GFP fusion (GR-GFP) in HeLa cells; assay: GR-GFP translocation assay
Serum stability test = assay type: in vitro ADME; conditions: human, 25% human serum (supernatant after centrifugation)
[2] = test system: HEK293, MCF-7, A549, H1650, and H1299; assay: MTT cytotoxicity assay; assay type: cell-based, human; conditions: triplicates
mammalian cells = conditions: cited from earlier work

C[C@@H]1C[C@H]2[C@@H]3CCC4=CC(=O)C=C[C@]4(C)[C@@]3(F)[C@@H](O)C[C@]2(C)[C@@]1(O)C(=O)CO [Dex, dexamethasone]
effect of Rab5(Q79L) overexpression on TR [1]: no effect

N=C(N)NCCC[C@H](NC(=O)[C@H](CCCNC(=N)N)NC(=O)[C@H](CCCNC(=N)N)NC(=O)[C@H](CCCNC(=N)N)NC(=O)[C@H](CCCNC(=N)N)NC(=O)[C@H](CCCNC(=N)N)NC(=O)[C@H](CCCNC(=N)N)NC(=O)[C@H](CCCNC(=N)N)NC(=O)[C@@H](N)CCCNC(=N)N)C(=O)O [R9]
half-life (Serum stability test): ~30 min

N=C(N)NCCC[C@H](NC(=O)[C@H](CCCNC(=N)N)NC(=O)[C@H](CCCNC(=N)N)NC(=O)[C@H](CCC(N)=O)NC(=O)[C@H](CCCNC(=N)N)NC(=O)[C@H](CCCNC(=N)N)NC(=O)[C@H](CCCCN)NC(=O)[C@H](CCCCN)NC(=O)[C@H](CCCNC(=N)N)NC(=O)CNC(=O)[C@@H](N)Cc1ccc(O)cc1)C(=O)O [Tat]
half-life (Serum stability test): ~30 min

N=C(N)NCCC[C@@H]1NC(=O)[C@H](CCCNC(=N)N)NC(=O)[C@H](CCCNC(=N)N)NC(=O)[C@H](Cc2ccc3ccccc3c2)NC(=O)[C@H](Cc2ccccc2)NC(=O)[C@H](CCC(N)=O)NC(=O)[C@H](CCCNC(=N)N)NC1=O [cFΦR4] (cyclo(F[2Nal]RRRRQ))
remaining at 24 h, 5 µM (Serum stability test): > 70% | growth inhibition after 72 h ([2]; 50 μM, 72 h): up to 20% | growth inhibition after 24 or 48 h ([2]; up to 50 μM, any of five human cell lines): no significant growth inhibition | efficiency of entering the cytoplasm and nucleus relative to nonaarginine (R9) (mammalian cells): 2–5 fold
